{"source": "patent US10308595B2", "about": "“Albicidin derivatives, their use and synthesis” (priority 2013, dated 2019)", "type_in_all_cases": "cell-based", "key": {"[1]": {"tested_on": "Micrococcus luteus DSM1790", "assay": "Test agar plates (disc diffusion), diameter of inhibition area", "settings": "for Antibacterial activity, diameter of inhibition area, Micrococcus luteus: 10 μl per test disc, \"—\" no activity detected", "protocol": "(§1) The dry compounds were dissolved in DMSO (1 mg/ml) and the so obtained stock solution was diluted with sterilized Millipore water 1:10 and 1:100\n(§2) 20 μl of cryo stock of each strain were inoculated to 20 ml of Mueller-Hinton medium and grown overnight at 30° C. or 37° C. on a vertical shaker with 160 rpm. The inoculum for the test was adjusted by the 0.5 McFarland Standard (OD625 from 0.08 to 0.1)\nMicrococcus luteus DSM1790 [gram. Pos.] Medium: MHB/37° C.\n(§3) Every plate is prepared by pouring 10 ml Mueller-Hinton agar into standard petri dishes (diam 94 mm). The so obtained Mueller-Hinton plates are overlayed with 4 ml Mueller-Hinton soft agar containing 100 μl suspension of the test strain.\n(§4) After the soft agar turned solid, sterile susceptibility test discs were circular placed on the agar and on every test disc 10 μl compound was added. Each concentration is tested in triplicate. The agar dishes were incubated for 18 hours at a temperature of 30° C. or 37° C. Results are obtained by measuring the diameter of inhibition area around each test disc."}, "Bacillus subtilis DSM10": {"tested_on": "Bacillus subtilis DSM10", "assay": "Test agar plates (disc diffusion), diameter of inhibition area", "settings": "for Antibacterial activity, diameter of inhibition area, Bacillus subtilis DSM 10: 10 μl per test disc, \"—\" no activity detected", "protocol": "as §1, §2\nBacillus subtilis DSM10 [gram. Pos.] Medium: MHB/30° C.\nas §3, §4"}, "[2]": {"tested_on": "Mycobacterium phlei DSM750", "assay": "Test agar plates (disc diffusion), diameter of inhibition area", "settings": "concentration 1 mg/ml; 10 μl per test disc; \"—\" no activity detected", "protocol": "as §1, §2\nMycobacterium phlei DSM750 [gram. Pos.] Medium: MHB/30° C.\nas §3, §4"}, "[3]": {"tested_on": "Escherichia coli K12 (W1130)", "assay": "Test agar plates (disc diffusion), diameter of inhibition area", "settings": "10 μl per test disc, \"—\" no activity detected", "protocol": "as §1, §2\nEscherichia coli K12 (W1130) [gram. Neg.] Medium: MHB/37° C.\nas §3, §4"}, "Bacillus megaterium": {"tested_on": "Bacillus megaterium", "assay": "Test agar plates (disc diffusion), diameter of inhibition area", "settings": "10 μl per test disc, \"—\" no activity detected", "protocol": "as §1, §2\nBacillus megaterium [gram. Pos.] Medium: MHB/30° C.\nas §3, §4"}, "[4]": {"tested_on": "Escherichia coli albi-res (Montpellier)", "assay": "Test agar plates (disc diffusion), diameter of inhibition area", "settings": "18 h, read-out: diameter of inhibition, Escherichia coli albi-res (Montpellier)", "protocol": "as §1, §2\nEscherichia coli albi-res (Montpellier) [gram. Neg.] Medium: MHB/37° C.\nas §3, §4"}, "[5]": {"tested_on": "Staphylococcus aureus DSM 2569", "assay": "Test agar plates (disc diffusion), diameter of inhibition area", "settings": "DSM2569, 18 h, test agar plates, active substance 1 mg/ml, \"more than 1 cm and more than 2 cm\" [sic], read-out: diameter of inhibition, Staphylococcus aureus DSM 2569", "protocol": "as §1, §2\nStaphylococcus aureus DSM 2569 [gram. Pos.] Medium: MHB/37° C.\nas §3, §4"}, "Escherichia coli DH5α": {"tested_on": "Escherichia coli DH5α", "assay": "Test agar plates (disc diffusion), diameter of inhibition area", "settings": "18 h, test agar plates, active substance 1 mg/ml, more than 1 cm or more than 2 cm, read-out: diameter of inhibition, Escherichia coli DH5α", "protocol": "as §1, §2\nEscherichia coli DH5α [gram. Neg.] Medium: MHB/37° C.\nas §3, §4"}, "[6]": {"tested_on": "Staphylococcus aureus (ATCC 29213)", "assay": "EN-ISO standard test (ISO 20776-1), MIC", "protocol": "(§5) Furthermore, compounds were tested against the following bacteria\n(§6) according to EN-ISO standard (ISO 20776-1: 2006. Clinical laboratory testing and in vitro diagnostic test systems—Susceptibility testing of infectious agents and evaluation of performance of antimicrobial susceptibility test devices—Part 1:Reference method for testing the in vitro activity of antimicrobial agents against rapidly growing aerobic bacteria involved in infectious diseases; German version EN ISO 20776-1:2006. Beuth-Verlag, Berlin)."}, "[7]": {"tested_on": "Escherichia coli (ATCC 25922, 100-2-49 and 100-2-56)", "assay": "EN-ISO standard test (ISO 20776-1), MIC", "protocol": "as §5, §6"}, "[8]": {"tested_on": "Staphylococcus aureus (PEG 10-38-22)", "assay": "EN-ISO standard test (ISO 20776-1), MIC", "protocol": "as §5, §6"}, "[9]": {"tested_on": "Salmonella enteritidis (PEG-10-3-58)", "assay": "EN-ISO standard test (ISO 20776-1), MIC", "protocol": "as §5\nSalmonella enteritidis (PEG-10-3-58),\nas §6"}, "[10]": {"tested_on": "Pseudomonas aeruginosa DSM1117", "assay": "Test agar plates (disc diffusion), diameter of inhibition area", "settings": "DSM1117, 18 h, test agar plates, active substance 1 mg/ml, more than 1 cm or more than 2 cm, read-out: diameter of inhibition, Pseudomonas aeruginosa DSM1117", "protocol": "as §1, §2\nPseudomonas aeruginosa DSM1117 [gram. Neg.] Medium: MHB/37° C.\nas §3, §4"}, "[11]": {"tested_on": "Pseudomonas aeruginosa (PEG-10-2-61)", "assay": "EN-ISO standard test (ISO 20776-1), MIC", "protocol": "as §5\n(§7) Pseudomonas aeruginosa (ATCC 27853 and PEG-10-2-61)\nas §6"}, "[12]": {"tested_on": "Pseudomonas aeruginosa (ATCC 27853)", "assay": "EN-ISO standard test (ISO 20776-1), MIC", "protocol": "as §5, §7, §6"}, "[13]": {"tested_on": "test strains of the agar plate tests", "assay": "Test agar plates, control substance in the same tests (strains not named individually)", "settings": "active substance 1 mg/ml", "protocol": "as §1, §2, §3, §4\nTest Agar Plates (Active Substance 1 mg/ml) Control Substance: […]"}, "[14]": {"tested_on": "Escherichia coli strains expressing albicidin resistance determinants (DH5aAlbr, albD, alb14, alb19, sbmC)", "assay": "Microbiological assay (Zhang et al.) for cross-resistance", "settings": "synthetic versus natural albicidin, FIG. 11", "description": "The microbiological assay described by Zhang et al., (J Appl Microbiol., 1998, 85, 1023-8) was used to study cross-resistance between synthetic albicidin (10) and the natural product albicidin purified from albicidin heterologous host developed by Vivien et al. (Antimicrob Agents Chemother., 2007, 51, 1549-52). Several Escherichia coli strains expressing a wide range of albicidin resistance determinants were used for this microbiological bioassay: strain DH5aAlbr (a spontaneous albicidin-resistant DH5a derivative; Rott et al., (J. Bacteriol., 1996, 178, 4590-4596.) and strains harboring albD (an albicidin-detoxifying gene, Zhang and Birch (Proc. Natl. Acad. Sci. USA, 1997, 94, 9984-9989.), alb14 (an albicidin efflux pump gene conferring albicidin resistance in E. coli, Bostock et al., (J. Appl. Microbiol., 2006, 101, 151-160.), alb19 (a McbG gene conferring albicidin resistance in E. coli, Hashimi et al. (Antimicrob. Agents Chemother., 2007, 51, 181-187.), or sbmC (a microcin B17 resistance gene, Baquero et al. (Mol. Microbiol., 1995, 18, 301-311.)."}}, "data": [{"smiles": "COc1c(NC(=O)c2ccc(NC(=O)c3ccc(NC(=O)[C@H](CC#N)NC(=O)c4ccc(NC(=O)/C(C)=C/c5ccc(O)cc5)cc4)cc3)c(OC)c2O)ccc(C(=O)O)c1O", "note": "[A, beta-Albicidin]", "values": [{"measurement": "Antibacterial activity, diameter of inhibition area, Micrococcus luteus", "setting": "[1]; concentration 0.1 mg/ml", "result": 2.0}, {"measurement": "Antibacterial activity, diameter of inhibition area, Micrococcus luteus", "setting": "[1]; concentration 1 mg/ml", "result": 2.8}, {"measurement": "Antibacterial activity, diameter of inhibition area, Bacillus subtilis DSM 10", "setting": "Bacillus subtilis DSM10; concentration 0.1 mg/ml", "result": 1.4}, {"measurement": "Antibacterial activity, diameter of inhibition area, Bacillus subtilis DSM 10", "setting": "Bacillus subtilis DSM10; concentration 1 mg/ml", "result": 2.8}, {"measurement": "Antibacterial activity, diameter of inhibition area, Mycobacterium phlei DSM 750", "setting": "[2]", "result": 1.5}, {"measurement": "Antibacterial activity, diameter of inhibition area, Escherichia coli K12 (W1130)", "setting": "[3]; concentration 0.1 mg/ml", "result": 1.9}, {"measurement": "Antibacterial activity, diameter of inhibition area, Escherichia coli K12 (W1130)", "setting": "[3]; concentration 1 mg/ml", "result": 2.6}, {"measurement": "Antibacterial activity, diameter of inhibition area, Bacillus megaterium", "setting": "Bacillus megaterium; concentration 0.1 mg/ml", "result": 1.2}, {"measurement": "Antibacterial activity, diameter of inhibition area, Bacillus megaterium", "setting": "Bacillus megaterium; concentration 1 mg/ml", "result": 2.0}]}, {"smiles": "CN[C@@H]1[C@@H](O[C@H]2O[C@H](CO)[C@@H](N)[C@H](O)[C@H]2O)OC2C[C@@H](N)[C@@H](O[C@H]3[C@H](O)[C@@H](O)[C@H](N)C[C@@H]3N)OC2[C@@H]1O", "note": "(stereo partly shown) [Apramycin, reference compound]", "values": [{"measurement": "Antibacterial activity, diameter of inhibition area, Micrococcus luteus", "setting": "[1]; concentration 1 mg/ml", "result": 1.8}, {"measurement": "Antibacterial activity, diameter of inhibition area, Bacillus subtilis DSM 10", "setting": "Bacillus subtilis DSM10; concentration 1 mg/ml", "result": 2.0}, {"measurement": "Antibacterial activity, diameter of inhibition area, Mycobacterium phlei DSM 750", "setting": "[2]", "result": 2.2}, {"measurement": "Antibacterial activity, diameter of inhibition area, Escherichia coli K12 (W1130)", "setting": "[3]; concentration 1 mg/ml", "result": 1.7}, {"measurement": "Antibacterial activity, diameter of inhibition area, Bacillus megaterium", "setting": "Bacillus megaterium; concentration 1 mg/ml", "result": 3.5}]}, {"smiles": "COc1c(NC(=O)c2ccc(NC(=O)c3ccc(NC(=O)C(CC#N)NC(=O)c4ccc(NC(=O)C5C6CC7CC(C6)CC5C7)cc4)cc3)c(OC)c2O)ccc(C(=O)O)c1O", "note": "(stereo not shown) [Compound 36]", "values": [{"measurement": "zone of inhibition at 1000 µg/mL", "setting": "[1]; Micrococcus luteus, DSM1790, 18 h, test agar plates, active substance 1 mg/ml, \"more than 1 cm and more than 2 cm\" [sic], read-out: diameter of inhibition, Micrococcus luteus DSM1790", "result": "> 10", "unit": "mm"}, {"measurement": "zone of inhibition at 1000 µg/mL", "setting": "Bacillus subtilis DSM10; Bacillus subtilis, DSM10, 18 h, test agar plates, active substance 1 mg/ml, more than 1 cm or more than 3.9 cm [sic], read-out: diameter of inhibition, Bacillus subtilis DSM10", "result": "> 10", "unit": "mm"}, {"measurement": "zone of inhibition at 1000 µg/mL", "setting": "[4]", "result": "> 10", "unit": "mm"}, {"measurement": "zone of inhibition at 1000 µg/mL", "setting": "[5]", "result": "> 10", "unit": "mm"}, {"measurement": "zone of inhibition at 1000 µg/mL", "setting": "Escherichia coli DH5α", "result": "> 10", "unit": "mm"}, {"measurement": "MIC values, in words", "setting": "[6]", "result": "good to very good"}, {"measurement": "MIC values (minimal inhibitory concentration), in words", "setting": "[7]", "result": "good to very good"}, {"measurement": "MIC values, in words", "setting": "[8]", "result": "good to very good"}, {"measurement": "MIC values, in words", "setting": "[9]", "result": "good to very good"}, {"measurement": "zone of inhibition at 1000 µg/mL", "setting": "[10]", "result": "> 10", "unit": "mm"}, {"measurement": "MIC values, in words", "setting": "[11]", "result": "good to very good"}, {"measurement": "MIC values, in words", "setting": "[12]", "result": "good to very good"}]}, {"smiles": "COc1c(NC(=O)c2ccc(NC(=O)c3ccc(NC(=O)[C@H](CC#N)NC(=O)c4ccc(NC(=O)/C(C)=C/c5ccc(O)cc5)cc4)cc3)c(OC)c2O)ccc(C(=O)O)c1O", "note": "[Natural albicidin, Albicidin]", "values": [{"measurement": "diameter of inhibition, control substance in the same tests", "setting": "[13]", "result": "more than 1 cm"}]}, {"smiles": "COc1c(NC(=O)c2ccc(NC(=O)c3ccc(NC(=O)[C@H](CC#N)NC(=O)c4ccc(NC(=O)/C(C)=C/c5ccc(O)cc5)cc4)cc3)c(OC)c2O)ccc(C(=O)O)c1O", "note": "[synthetic albicidin (10), (S,E)-4-(4-(4-(3-cyano-2-(4-(3-(4-hydroxyphenyl)-2-methylacrylamido)benzamido)propanamido)benzamido)-2-hydroxy-3-methoxybenzamido)-2-hydroxy-3-methoxybenzoic acid]", "values": [{"measurement": "resistance pattern (cross-resistance) in albicidin-resistant E. coli strains", "setting": "[14]", "result": "exactly the same"}]}]}
